Assay results: patent publication US11771711B2, “Substituted pyridines as DNMT1 inhibitors” (GlaxoSmithKline Intellectual Property Development Limited, priority 2021, dated 2023)

Assays:
Full-length human DNMT1 = Full-length human DNMT1 (Homo sapiens (Human), UniProt P26358); experiment: DNMT1 Scintillation Proximity Assay (SPA) - Assay A; format: biochemical; details: footnote a: DNMT1 full length
Description: DNMT1 Scintillation Proximity Assay (SPA)—Assay A (Full-Length Human DNMT1)
This assay used Scintillation Proximity technology in a signal increase format to evaluate the potency of compounds. Full-length human DNMT1, hemi-methylated DNA duplex*, and tritiated SAM were utilized to monitor activity. Assay plate creation consisted of the following parameters: 500 nL of an 11 pt, 3-fold serial dilution of compound was stamped into a 96 well Costar plate (#3884). Assay buffer mix was made on the day of assay consisting of: 20 mM Tris pH 7.5, 1 mM DTT, 1 mM EDTA, and 5% glycerol. A 2× enzyme mix was then prepared consisting of 30 nM DNMT1 protein (full length human DNMT, made in house) in assay buffer. The 2× substrate mix was made last, and consisted of 160 nM 40mer hemi-methylated DNA*, 0.48 μM ^3H-SAM, and 2.92 μM cold SAM in assay buffer (^3H-SAM is added last). The quench (1 mM SAH) was made in bulk and frozen at −20 until the time of use. Ten uL of the 2× substrate mix was added to the entire plate using a multichannel electronic pipette. Plate was shaken for at least 10s between additions to ensure mixing. Next, 20 uL of 2× quench mix was added to column 12 using a multichannel pipette (shake plate). Using a multichannel electronic pipette, 10 uL of 2× enzyme mix was added to the full plate starting with column […] (column 12 last to avoid pre-quench carryover). Plates were incubated on the shaker for 30 minutes with the plate covered. At the end of the incubation period, 20 uL of quench mix were added to all wells except column 12 (shake plate) followed by the addition of 20 uL of 3 mg/mL PerkinElmer PEI PVT SPA Beads (Cat. #RPNQ0097) diluted in DNAse free water and allowed to shake for at least 30 minutes. Plates were sealed with a clear seal and centrifuged at 500 rpm for 1 min. Plates were read on a MicroBeta (Perkin Elmer, read for ^3H (1 min/well).
Microsoft Excel was used to analyze the data up to Vi/Vo and GraFit was used to fit the data. Responses were normalized to the uninhibited (DMSO) and pre-quenched controls within each plate. Dose-response curves were analyzed using a three-parameter logistic fit with Ymin constrained to 0 and results were expressed as IC50 values.
Final assay conditions: 20 mM Tris (Hampton Research—HR-937-06), pH 7.5, 1 mM DTT (Invitrogen—P2325), 1 mM EDTA (Invitrogen—AM9260G), 5% Glycerol (Teknova—G1796), 0.02% Pluronic F127 (Life Technologies—P6866), 15 nM DNMT1 (full length human DNMT1—GSK made in-house), 240 nM ^3H-SAM (PerkinElmer—NET155H001MC), 1460 nM cold SAM (New England Biolabs—B9003S) and 80 nM 40-mer hemi-methylated DNA Oligonucleotide (Integrated DNA Technologies—custom), 1 mM SAH (Sigma A9384), and 1 mg/mL PEI PVT SPA Beads (Perkin Elmer RPNQ0097) resuspended in water.

[1] = Drug exposure in blood and tumor of mice bearing SKM-1 xenografts (PK/PD study); format: in vivo, mouse; details: 22, 67 or 200 mg/kg BID PO; blood and tumor two hours following the 20th dose
Description: SKM-1 cells (3.8×10^6) suspended in 50% Matrigel (BD Biosciences)/50% Dulbecco's phosphate-buffered saline (DPBS) were implanted in 8-11 week old female NOD.CB17-Prkdc1NCrCrl mice. Tumors were measured with digital calipers, and stratified block randomized according to tumor size (P value >0.9085) into treatment groups with average tumor volumes of 219 or 1076 mm^3 for efficacy or PK/PD studies respectively. GSK4172239A was formulated weekly in Sterile water. Mice were measured twice weekly for body weight and tumor size. Dosing started on the day after randomization. Animals were dosed twice daily (BID) via oral gavage (PO) with Example 1 at 22, 67, or 200 mg/kg. […] Both samples were precipitated with acetonitrile, and concentrations of Example 4 were determined by HPLC—MS/MS (Waters Acquity uPLC, Sciex API5000). SKM-1 tumor and mouse bone marrow samples were assessed using a global DNA methylation (5-methylcytosine) LC-MS/MS assay. […] An HPLC—MS/MS method was optimized to quantify 2′-deoxycytidine and 5-methyl-2′-deoxycytidine. […] Concentrations of 2′-deoxycytidine and 5-methyl-2′-deoxycytidine were determined using standard curves generated from pure 2′-deoxycytidine (Sigma-Aldrich) and 5-methyl-2′-deoxycytidine (Santa Cruz Biotechnology). […]
Example 1 was evaluated in immunocompromised mice bearing subcutaneous SKM-1 human AML (acute myeloid leukemia) xenografts. […]

[2] = tested on: global DNA methylation (5-methylcytosine); experiment: Global DNA methylation (5-methylcytosine) LC-MS/MS assay in SKM-1 tumor and mouse bone marrow; format: in vivo
Description: (§1) SKM-1 cells (3.8×10^6) suspended in 50% Matrigel (BD Biosciences)/50% Dulbecco's phosphate-buffered saline (DPBS) were implanted in 8-11 week old female NOD.CB17-Prkdc1NCrCrl mice. Tumors were measured with digital calipers, and stratified block randomized according to tumor size (P value >0.9085) into treatment groups with average tumor volumes of 219 or 1076 mm^3 for efficacy or PK/PD studies respectively. GSK4172239A was formulated weekly in Sterile water. Mice were measured twice weekly for body weight and tumor size. Dosing started on the day after randomization. Animals were dosed twice daily (BID) via oral gavage (PO) with Example 1 at 22, 67, or 200 mg/kg. A maximal tumor burden of 2,500 mm^3 for two consecutive measurements was not exceeded during the studies. For the PK/PD study, tumor, blood, and bone marrow were collected two hours following the 20th dose (10 days). For PK, blood was mixed 50:50 with water while tumor was homogenized (Omni hand-held homogenizer) in sterile water at a 1:4 dilution. Both samples were precipitated with acetonitrile, and concentrations of Example 4 were determined by HPLC—MS/MS (Waters Acquity uPLC, Sciex API5000). SKM-1 tumor and mouse bone marrow samples were assessed using a global DNA methylation (5-methylcytosine) LC-MS/MS assay. […] An HPLC—MS/MS method was optimized to quantify 2′-deoxycytidine and 5-methyl-2′-deoxycytidine. […] Concentrations of 2′-deoxycytidine and 5-methyl-2′-deoxycytidine were determined using standard curves generated from pure 2′-deoxycytidine (Sigma-Aldrich) and 5-methyl-2′-deoxycytidine (Santa Cruz Biotechnology). […]
(§2) Example 1 was evaluated in immunocompromised mice bearing subcutaneous SKM-1 human AML (acute myeloid leukemia) xenografts. […] In addition, the mechanistic consequence of inhibiting DNMT1, a decrease in DNA methylation, was assessed globally using a LC-MS/MS-based 5-methylcytosine assay. […] In a subsequent study, to examine anti-tumor efficacy, tumor volume was measured (n=10 animals per group) twice weekly for 4 weeks while on treatment.

[3] = tested on: SKM-1 human AML (acute myeloid leukemia) xenografts; experiment: Anti-tumor efficacy in subcutaneous SKM-1 human AML xenografts; format: in vivo, mouse
Description: as §1, §2

physchem = details: FaSSIF buffer, pH 6.5, fassif, thermodynamic from solid
Description: Solubility of Solid Compounds in Fasted Simulated Intestinal Fluid
The solubility of solid compounds in Fasted Simulated Intestinal Fluid (FaSSIF) was determined at pH 6.5 after 4 hour equilibration at room temperature (using procedures described in Sou, T.; Bergström, C. A. S. Automated assays for thermodynamic (equilibrium) solubility determination. Drug Discovery Today: Technologies 2018, 27, 11-19). 1 ml of FaSSIF buffer (3 mM Sodium taurocholate, 0.75 mM lecithin in sodium phosphate buffer at pH6.5) was added to manually weighed 1 mg of solid compound in a 4 ml vial. The resulting suspension was shaken at 900 rpm for 4 hours at room temperature and then transferred to a Multiscreen HTS, 96-well solubility filter plate to separate the residual solid and the filtrate. Quantification of the compound concentration in the filtrate was performed by HPLC-UV using single point calibration of a known concentration of the compound in DMSO. […] The dynamic range of the assay was 1-1000 μg/ml.

Sequence of Full-length human DNMT1 (P26358 whole entry): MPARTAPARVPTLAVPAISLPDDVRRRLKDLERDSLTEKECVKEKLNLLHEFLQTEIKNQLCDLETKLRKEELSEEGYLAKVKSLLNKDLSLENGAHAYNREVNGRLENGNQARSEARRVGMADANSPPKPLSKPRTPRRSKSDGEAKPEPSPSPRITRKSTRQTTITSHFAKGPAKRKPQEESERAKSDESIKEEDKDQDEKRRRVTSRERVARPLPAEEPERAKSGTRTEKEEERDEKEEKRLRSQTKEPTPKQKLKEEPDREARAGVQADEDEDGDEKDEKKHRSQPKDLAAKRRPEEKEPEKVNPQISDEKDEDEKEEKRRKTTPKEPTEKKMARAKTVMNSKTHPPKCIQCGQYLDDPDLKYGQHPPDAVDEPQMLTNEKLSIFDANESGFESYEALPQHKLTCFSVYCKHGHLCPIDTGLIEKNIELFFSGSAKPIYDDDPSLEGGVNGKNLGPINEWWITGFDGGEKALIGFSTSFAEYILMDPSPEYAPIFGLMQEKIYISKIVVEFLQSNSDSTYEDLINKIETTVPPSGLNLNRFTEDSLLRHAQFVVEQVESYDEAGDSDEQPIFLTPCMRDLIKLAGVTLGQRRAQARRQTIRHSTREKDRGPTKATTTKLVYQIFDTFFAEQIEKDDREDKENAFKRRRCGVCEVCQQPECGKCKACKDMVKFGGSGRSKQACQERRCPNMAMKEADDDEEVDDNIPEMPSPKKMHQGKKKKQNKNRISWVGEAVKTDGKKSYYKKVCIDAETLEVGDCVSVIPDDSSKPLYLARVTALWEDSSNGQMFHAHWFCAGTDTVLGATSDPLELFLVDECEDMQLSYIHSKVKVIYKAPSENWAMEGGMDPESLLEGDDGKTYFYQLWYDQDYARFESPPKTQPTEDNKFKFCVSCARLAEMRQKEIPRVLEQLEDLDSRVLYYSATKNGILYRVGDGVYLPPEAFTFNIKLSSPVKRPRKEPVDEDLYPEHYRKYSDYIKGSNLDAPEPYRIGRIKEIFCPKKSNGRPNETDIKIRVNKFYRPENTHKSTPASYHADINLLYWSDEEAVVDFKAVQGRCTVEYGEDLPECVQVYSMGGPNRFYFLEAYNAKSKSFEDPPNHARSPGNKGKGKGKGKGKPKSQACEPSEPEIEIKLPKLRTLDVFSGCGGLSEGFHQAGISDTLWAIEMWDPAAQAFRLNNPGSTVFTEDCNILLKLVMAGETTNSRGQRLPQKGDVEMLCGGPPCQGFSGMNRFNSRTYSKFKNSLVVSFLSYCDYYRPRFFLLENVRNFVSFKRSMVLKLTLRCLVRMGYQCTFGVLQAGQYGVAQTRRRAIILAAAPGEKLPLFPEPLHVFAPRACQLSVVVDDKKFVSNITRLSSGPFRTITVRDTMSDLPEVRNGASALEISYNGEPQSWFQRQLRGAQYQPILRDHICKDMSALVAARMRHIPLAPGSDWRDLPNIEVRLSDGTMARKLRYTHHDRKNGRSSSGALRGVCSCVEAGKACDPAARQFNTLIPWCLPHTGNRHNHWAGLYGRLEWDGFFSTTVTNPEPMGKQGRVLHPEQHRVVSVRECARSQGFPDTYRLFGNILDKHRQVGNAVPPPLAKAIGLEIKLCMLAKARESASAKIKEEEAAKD

Q: With `CCc1c(C#N)c(S[C@@H](C(=O)NP(=O)(O)O)c2ccc(OS(C)(=O)=O)cc2)nc(N(C)C)c1C#N` [Example 1, (R)-(2-((3,5-dicyano-6-(dimethylamino)-4-ethylpyridin-2-yl)thio)-2-(4-((methylsulfonyl)oxy)phenyl)acetyl)phosphoramidic acid] as the molecule, how does the IC50 (Full-length human DNMT1) read?
A: The IC50 was 16.1 µM.

Q: And the “drug exposure (measured as the racemic active moiety Example 4)” value [1]?
A: The value was “dose-proportional and roughly equivalent in blood and tumor”.

Q: What about the “global DNA methylation in comparison to vehicle” value ([2]; 22, 67 or 200 mg/kg BID PO, 10 days) of the same molecule?
A: The value was “reduced at all doses”.

Q: And the “maximal change (reduction) in global DNA methylation in the tumor vs vehicle” value ([2]; SKM-1 tumor, 200 mg/kg BID PO, two hours following the 20th dose (10 days))?
A: The value was 49%.

Q: And the “maximal change (reduction) in global DNA methylation in the bone marrow vs vehicle” value ([2]; mouse bone marrow, 200 mg/kg BID PO, two hours following the 20th dose (10 days))?
A: The value was 47%.

Q: What about the tumor growth inhibition ([3]; 22 mg/kg BID PO, vs vehicle at day 22) of the same molecule?
A: The tumor growth inhibition was 35%.

Q: And the tumor response ([3]; 200 mg/kg BID PO, vs vehicle at day 22)?
A: Its tumor response is “marked regression”.

Q: And the tumor volume ([3]; 22, 67 or 200 mg/kg BID PO, measured twice weekly for 4 weeks)?
A: Its tumor volume is “dose-dependent reduction”.

Q: And the solubility at 4 h (physchem)?
A: The solubility at 4 h was > 1000 µg/mL.
